# Assays:
# [1] = test system: HCT116/VM46 drug resistant cell line; experiment: In vitro cytotoxicity assay (XTT), HCT116/VM46; assay type: cell-based, human
# Protocol: (§1) The A2780/DDP cell line is reported to be resistant through enhanced DNA repair mechanisms and elevated GSH/GST levels. Cells were cultured in McCoy's media and 10% fetal bovine serum. When in log phase growth, 4×10^3 cells/well were plated into 96 well microtiter plates and incubated at 37° C. in […] /5% CO2 for 24 hours to allow cell attachment. Compounds were added to the top row of wells, serially diluted (4 fold dilutions) and incubated for an additional 72 hours. The number of viable cells in each well was then quantitated as previously described^2 by adding 0.05 mg/ml final concentration tetrazolium stain (XTT) in the presence of 0.005 mM final concentration phenazine methosulfate. After incubation at room temperature for 3 hours to allow color development, optical density values were measured using a Dynatech MR600 plate reader at […]. IC50 values (drug concentration inhibiting cell growth by 50%) were calculated using linear regression analysis of the optical density readings. Triplicate determinations on separate 96 well plates were done for each drug on each cell line tested.
# [2] = test system: human ovarian carcinoma A2780 drug sensitive cell line; experiment: In vitro cytotoxicity assay (XTT), A2780; assay type: cell-based
# Protocol: as §1
# [3] = test system: iv implanted P388 leukemia; experiment: Antitumor activity against iv implanted P388 leukemia; assay type: in vivo, murine (CDF1 mice)
# Description: The P388 tumor was maintained in ascitic form in DBA/2 mice. Experimental tumor models used CDF^1 mice implanted via the intraperitoneal or intravenous route with 1×10^6 leukemia cells on day 0 and dosed with drugs according to the indicated route and schedule. Mice were weighed on day 0 and on day 5 or 6. Weight loss of 20% or greater was an indicator of drug toxicity. Each dose group consisted of 6 mice with 10 mice in the untreated control group. The dosing schedule was Q1DX1;1. Death checks were performed daily and the median life span of each group determined. […] Experiments were terminated on or about day 30.
structure (smiles),measurement,setting,value
COc1c(OC(C)C)cc2cc(O)c(C(=O)N[C@@H]3CC(=O)OC[C@@H](O[C@H]4C[C@H](O)[C@H](N(C)C)[C@H](C)O4)/C4=C/C#C[C@@H]5O[C@]56C(=C[C@H](Oc5ccc3nc5Cl)[C@@H]6O[C@H]3C[C@@](C)(O)[C@@H](O)[C@H](C)O3)C#C4)cc2c1OC [Kedarcidin chromophore],cross-resistance with VP-16,[1]; HCT116/VM46,not cross-resistant
same,IC50,"[1]; HCT116/VM46, 72 h, VP-16 values: mean of triplicate determinations from last 6 experiments",0.3 ng/mL
same,IC50,"[2]; A2780, 72 h, VP-16 values: mean of triplicate determinations from last 6 experiments",0.2 ng/mL
same,fold more potent than VP-16,[2]; VP-16 sensitive cell line (A2780),285 fold
same,% T/C,"[3]; Exp. 8305, 0.125 mg/kg/dose",186%
same,Av. wgt. change,"[3]; Exp. 8305, 0.125 mg/kg/dose",-0.3 g
same,Med. surv. time,"[3]; Exp. 8305, 0.125 mg/kg/dose",13.0
same,No. of mice alive on d 5,"[3]; Exp. 8305, 0.125 mg/kg/dose",6/6
same,% T/C,"[3]; Exp. 8305, 0.25 mg/kg/dose",214%
same,Av. wgt. change,"[3]; Exp. 8305, 0.25 mg/kg/dose",-0.8 g
same,Med. surv. time,"[3]; Exp. 8305, 0.25 mg/kg/dose",15.0
same,No. of mice alive on d 5,"[3]; Exp. 8305, 0.25 mg/kg/dose",6/6
same,% T/C,"[3]; Exp. 8305, 0.5 mg/kg/dose",107%
same,Av. wgt. change,"[3]; Exp. 8305, 0.5 mg/kg/dose",-2.9 g
same,Med. surv. time,"[3]; Exp. 8305, 0.5 mg/kg/dose",7.5
same,No. of mice alive on d 5,"[3]; Exp. 8305, 0.5 mg/kg/dose",6/6
same,% T/C,"[3]; Exp. 8305, 1 mg/kg/dose",TOX
same,Med. surv. time,"[3]; Exp. 8305, 1 mg/kg/dose",TOX
same,No. of mice alive on d 5,"[3]; Exp. 8305, 1 mg/kg/dose",0/6
same,% T/C,"[3]; Exp. 8305, 2 mg/kg/dose",TOX
same,Med. surv. time,"[3]; Exp. 8305, 2 mg/kg/dose",TOX
same,No. of mice alive on d 5,"[3]; Exp. 8305, 2 mg/kg/dose",0/6
same,% T/C,"[3]; Exp. 8305, 4 mg/kg/dose",TOX
same,Med. surv. time,"[3]; Exp. 8305, 4 mg/kg/dose",TOX
same,No. of mice alive on d 5,"[3]; Exp. 8305, 4 mg/kg/dose",0/6
same,optimal dose,"[3]; Exp. 8305, iv one day after tumor implant",0.25 mg/kg/inj
same,% T/C,"[3]; Exp. 8328, 0.125 mg/kg/dose",186%
same,Av. wgt. change,"[3]; Exp. 8328, 0.125 mg/kg/dose",-2.5 g
same,Med. surv. time,"[3]; Exp. 8328, 0.125 mg/kg/dose",13.0
same,No. of mice alive on d 5,"[3]; Exp. 8328, 0.125 mg/kg/dose",6/6
same,% T/C,"[3]; Exp. 8328, 0.25 mg/kg/dose",100%
same,Av. wgt. change,"[3]; Exp. 8328, 0.25 mg/kg/dose",-2.4 g
same,Med. surv. time,"[3]; Exp. 8328, 0.25 mg/kg/dose",7.0
same,No. of mice alive on d 5,"[3]; Exp. 8328, 0.25 mg/kg/dose",6/6
same,% T/C,"[3]; Exp. 8328, 0.5 mg/kg/dose",TOX
same,Med. surv. time,"[3]; Exp. 8328, 0.5 mg/kg/dose",TOX
same,No. of mice alive on d 5,"[3]; Exp. 8328, 0.5 mg/kg/dose",0/6
same,% T/C,"[3]; Exp. 8328, 1.0 mg/kg/dose",TOX
same,Med. surv. time,"[3]; Exp. 8328, 1.0 mg/kg/dose",TOX
same,No. of mice alive on d 5,"[3]; Exp. 8328, 1.0 mg/kg/dose",0/6
same,optimal dose,"[3]; Exp. 8328, iv, Q1DX1;1",0.125 mg/kg/inj

# — patent publication US5143906A, “Kedarcidin antitumor chromophore and pharmaceutical composition containing same” (Bristol-Myers Squibb Company, priority 1991, dated 1992)
